Measurements: the supplement of paper PMC10307832

Experiments:
Assay in all cases: relative viability (nuclei count vs DMSO), 5 days (fraction); higher = more cells survive
CUDC-101 + AZD7762 = compound: C#Cc1cccc(Nc2ncnc3cc(OC)c(OCCCCCCC(=O)NO)cc23)c1 [CUDC-101] + NC(=O)Nc1cc(-c2cccc(F)c2)sc1C(=O)N[C@H]1CCCNC1 [AZD7762] (partner 0.2 µM)
Procedure, shortened: (§1)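 A single step with final 0.05% Triton X-100, 1% formaldehyde and 1 ug/ml Hoechst fixed the cells and stained nuclei 5 days after treatment. Lung cancer cell lines in 1536-well plates had been treated by pin tool the day after seeding with one drug alone or a fixed anchor-drug dose plus five library-drug doses (not always all listed) in √10 steps, and nuclei were counted on 4× images. Relative viability is the ratio of nuclei in treated wells to nuclei in vehicle wells, taken as the median of duplicate plates.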

NVP-TAE684 + Phenformin = compound: COc1cc(N2CCC(N3CCN(C)CC3)CC2)ccc1Nc1ncc(Cl)c(Nc2ccccc2S(=O)(=O)C(C)C)n1 [NVP-TAE684] + N=C(N)NC(=N)NCCc1ccccc1 [Phenformin] (partner 250 µM)
Procedure, shortened: as §1

Vandetanib + Olaparib = compound: COc1cc2/c(=N/c3ccc(Br)cc3F)nc[nH]c2cc1OCC1CCN(C)CC1 [Vandetanib] + O=C(c1cc(Cc2n[nH]c(=O)c3ccccc23)ccc1F)N1CCN(C(=O)C2CC2)CC1 [Olaparib] (partner 8 µM)
Procedure, shortened: as §1

Vandetanib + Foretinib = compound: COc1cc2/c(=N/c3ccc(Br)cc3F)nc[nH]c2cc1OCC1CCN(C)CC1 [Vandetanib] + COc1cc2c(Oc3ccc(NC(=O)C4(C(=O)Nc5ccc(F)cc5)CC4)cc3F)ccnc2cc1OCCCN1CCOCC1 [Foretinib] (partner 0.25 µM)
Procedure, shortened: as §1

| Cell Line | relative viability (CUDC-101 + AZD7762; first compound 0.01 µM) | relative viability (CUDC-101 + AZD7762; first compound 0.03162 µM) | relative viability (CUDC-101 + AZD7762; first compound 0.1 µM) | relative viability (CUDC-101 + AZD7762; first compound 0.3162 µM) | relative viability (CUDC-101 + AZD7762; first compound 1 µM) | relative viability (NVP-TAE684 + Phenformin; first compound 0.2 µM) | relative viability (NVP-TAE684 + Phenformin; first compound 0.6325 µM) | relative viability (NVP-TAE684 + Phenformin; first compound 2 µM) | relative viability (Vandetanib + Olaparib; first compound 0.02 µM) | relative viability (Vandetanib + Olaparib; first compound 0.06325 µM) | relative viability (Vandetanib + Olaparib; first compound 0.2 µM) | relative viability (Vandetanib + Olaparib; first compound 0.6325 µM) | relative viability (Vandetanib + Olaparib; first compound 2 µM) | relative viability (Vandetanib + Foretinib; first compound 0.02 µM) | relative viability (Vandetanib + Foretinib; first compound 0.06325 µM) | relative viability (Vandetanib + Foretinib; first compound 0.2 µM) | relative viability (Vandetanib + Foretinib; first compound 0.6325 µM) | relative viability (Vandetanib + Foretinib; first compound 2 µM) |
| --- | --- | --- | --- | --- | --- | --- | --- | --- | --- | --- | --- | --- | --- | --- | --- | --- | --- | --- |
| NCI-H522 | 0.932 | 0.753 | 0.791 | 0.75 | 0.689 | 0.685 | 0.777 | 0.608 | 0.604 | 0.703 | 0.689 | 0.743 | 0.605 | – | – | – | – | – |
| NCI-H1623 | – | – | – | – | – | 0.552 | 0.598 | 0.484 | – | – | – | – | – | 0.913 | 0.829 | 0.8 | 0.827 | 0.764 |
| IA-LM | – | – | – | – | – | – | – | – | 0.969 | 0.874 | 0.864 | 0.867 | 0.849 | 1.32 | 0.981 | 1.11 | 1.33 | 1.12 |
| NCI-H1792 | 0.789 | 0.513 | 0.687 | 0.653 | 0.423 | 0.268 | 0.25 | 0.159 | 0.425 | 0.442 | 0.469 | 0.66 | 0.409 | – | – | – | – | – |
| NCI-H1299 | – | – | – | – | – | – | – | – | 0.983 | 0.928 | 0.924 | 0.933 | 0.981 | 1.11 | 1.03 | 1.12 | 1.12 | 1.1 |
| NCI-H1703 | 0.141 | 0.117 | 0.11 | 0.116 | 0.125 | – | – | – | 0.458 | 0.267 | 0.385 | 0.342 | 0.303 | 0.338 | 0.346 | 0.42 | 0.328 | 0.339 |
| COR-L 105 | – | – | – | – | – | 0.457 | 0.259 | 0.211 | 0.639 | 0.606 | 0.756 | 0.67 | 0.811 | 0.91 | 1.11 | 0.329 | 0.533 | 0.358 |
| NCI-H1650 | – | – | – | – | – | 0.505 | 0.285 | 0.148 | 0.753 | 0.827 | 0.756 | 0.792 | 0.572 | 1.28 | 0.693 | 0.224 | 0.753 | 0.641 |
| NCI-H2009 | – | – | – | – | – | 0.47 | 0.458 | 0.328 | 0.649 | 0.668 | 0.658 | 0.688 | 0.716 | 1.26 | 1.14 | 0.197 | 1.27 | 1.22 |
| SK-MES-1 | – | – | – | – | – | 0.642 | 0.686 | 0.453 | 0.71 | 0.676 | 0.708 | 0.606 | 0.424 | 0.986 | 0.802 | 1.01 | 0.83 | 0.665 |
| Calu-6 | – | – | – | – | – | – | – | – | 0.526 | 0.552 | 0.579 | 0.572 | 0.563 | 0.809 | 0.86 | 0.902 | 0.853 | 0.856 |
| NCI-H2228 | – | – | – | – | – | 0.23 | 0.158 | 0.113 | 0.65 | 0.566 | 0.719 | 0.661 | 0.559 | 0.92 | 0.625 | 0.167 | 0.803 | 0.822 |
| NCI-H1563 | – | – | – | – | – | 0.662 | 0.645 | 0.53 | – | – | – | – | – | 0.959 | 0.96 | 0.885 | 0.806 | 0.866 |
| COR-L23 | – | – | – | – | – | 0.329 | 0.406 | 0.201 | 0.327 | 0.343 | 0.379 | 0.379 | 0.347 | 0.968 | 1.01 | 0.942 | 0.923 | 0.995 |
| EBC-1 | – | – | – | – | – | – | – | – | 0.698 | 0.603 | 0.69 | 0.782 | 0.693 | 0.0974 | 0.0982 | 0.108 | 0.0939 | 0.0987 |
| NCI-H2023 | – | – | – | – | – | 0.449 | 0.415 | 0.19 | 0.464 | 0.473 | 0.484 | 0.466 | 0.479 | 0.852 | 0.824 | 0.0955 | 0.591 | 0.431 |
| SW 1573 | – | – | – | – | – | 0.307 | 0.249 | 0.128 | 0.434 | 0.416 | 0.393 | 0.521 | 0.489 | 0.965 | 0.946 | 0.81 | 0.91 | 0.951 |
| NCI-H661 | – | – | – | – | – | 0.275 | 0.272 | 0.242 | 0.793 | 0.696 | 0.726 | 0.759 | 0.735 | 0.972 | 0.997 | 0.999 | 1.07 | 0.847 |
| A549 | – | – | – | – | – | 0.153 | 0.171 | 0.122 | 0.234 | 0.368 | 0.349 | 0.291 | 0.356 | 1.05 | 0.961 | 0.992 | 0.987 | 0.854 |
| NCI-H1648 | 0.846 | 0.566 | 0.646 | 0.45 | 0.361 | – | – | – | 0.591 | 0.771 | 0.91 | 1.15 | 0.761 | – | – | – | – | – |
| HCC-44 | 1.04 | 1.01 | 1.05 | 0.981 | 1.06 | 0.263 | 0.141 | 0.0733 | 0.914 | 0.944 | 0.948 | 0.973 | 1 | – | – | – | – | – |
| SK-LU-1 | – | – | – | – | – | 0.577 | 0.413 | 0.303 | 0.496 | 0.313 | 0.54 | 0.437 | 0.597 | 0.819 | 0.564 | 0.197 | 0.798 | 0.805 |
| NCI-H520 | – | – | – | – | – | 0.553 | 0.451 | 0.242 | 0.299 | 0.343 | 0.379 | 0.35 | 0.324 | 0.623 | 0.682 | 0.194 | 0.754 | 0.806 |
